Laboratory results published in patent publication US20260085053A1, “BENZOFURAN DERIVATIVES AS SIK INHIBITORS AND THE USE THEREOF” (BEONE MEDICINES I GMBH, priority 2023, published 2026).

How the values were obtained:
[1] = biological target: T1, SIK1 kinase (aa1-303, Thermo Fisher) (Homo sapiens, UniProt P57059); test: Biochemical activities determination for SIK1 protein (TR-FRET); conditions: 110 uM ATP, 0.5 μM STK1 substrate
T1 construct: SIK1 kinase (aa1-303, Thermo Fisher); purchased Thermo Fisher
T1 sequence (P57059 1-303): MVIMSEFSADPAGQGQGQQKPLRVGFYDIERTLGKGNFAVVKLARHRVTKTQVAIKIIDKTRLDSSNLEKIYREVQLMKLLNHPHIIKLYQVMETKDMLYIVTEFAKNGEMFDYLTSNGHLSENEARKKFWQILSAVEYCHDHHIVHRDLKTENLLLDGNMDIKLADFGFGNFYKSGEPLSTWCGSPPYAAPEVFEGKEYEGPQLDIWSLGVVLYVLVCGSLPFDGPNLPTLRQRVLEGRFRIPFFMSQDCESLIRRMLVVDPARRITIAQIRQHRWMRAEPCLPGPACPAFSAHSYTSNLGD
In short: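 TR-FRET kinase assay with SIK1 (aa1-303), 110 uM ATP, 0.5 μM STK1 substrate and 0-10 μM compound in Tris pH 7.5 with MgCl2, EGTA, DTT, Triton X-100. Enzyme preincubated with compound 60 min, reaction 180 min at room temperature; 665/620 nm ratio after overnight detection; IC50 from four-parameter logistic fit.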

[2] = biological target: T2, SIK2 kinase (full length, Thermo Fisher) (Homo sapiens, UniProt Q9H0K1); test: Biochemical activities determination for SIK2 protein (TR-FRET); conditions: 80 uM ATP, 0.5 μM substrate
T2 construct: SIK2 kinase (full length, Thermo Fisher); purchased Thermo Fisher
T2 sequence (Q9H0K1 whole entry): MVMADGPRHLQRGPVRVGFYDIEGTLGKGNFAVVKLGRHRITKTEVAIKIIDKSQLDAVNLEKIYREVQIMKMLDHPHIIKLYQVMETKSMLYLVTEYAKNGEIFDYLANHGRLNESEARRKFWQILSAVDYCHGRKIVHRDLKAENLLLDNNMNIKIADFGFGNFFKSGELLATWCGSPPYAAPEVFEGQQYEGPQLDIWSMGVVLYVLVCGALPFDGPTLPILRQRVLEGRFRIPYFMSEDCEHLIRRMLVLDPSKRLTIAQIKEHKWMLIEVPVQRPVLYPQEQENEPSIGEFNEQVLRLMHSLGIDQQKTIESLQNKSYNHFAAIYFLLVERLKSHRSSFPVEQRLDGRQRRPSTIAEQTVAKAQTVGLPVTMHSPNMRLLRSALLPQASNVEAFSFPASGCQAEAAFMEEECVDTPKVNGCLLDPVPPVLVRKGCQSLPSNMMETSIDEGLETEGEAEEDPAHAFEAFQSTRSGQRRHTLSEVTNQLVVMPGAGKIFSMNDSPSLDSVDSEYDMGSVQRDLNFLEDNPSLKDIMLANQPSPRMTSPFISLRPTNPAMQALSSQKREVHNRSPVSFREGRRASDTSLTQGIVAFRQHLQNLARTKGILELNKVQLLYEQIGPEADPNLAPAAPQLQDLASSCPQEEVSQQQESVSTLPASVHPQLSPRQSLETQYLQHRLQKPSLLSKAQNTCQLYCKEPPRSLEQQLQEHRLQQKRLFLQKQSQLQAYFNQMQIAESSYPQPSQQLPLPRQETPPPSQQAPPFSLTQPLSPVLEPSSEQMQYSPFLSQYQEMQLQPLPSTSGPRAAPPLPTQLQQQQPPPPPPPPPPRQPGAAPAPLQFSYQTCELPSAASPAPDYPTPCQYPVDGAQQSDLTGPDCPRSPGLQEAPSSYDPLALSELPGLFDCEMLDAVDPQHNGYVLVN
In short: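 Full-length SIK2 preincubated 60 min with 0–10 μM compound, then reacted 180 min at room temperature with 80 uM ATP and 0.5 μM biotinylated substrate (pH 7.5 Tris/MgCl2 buffer). Phosphorylation detected by TR-FRET (665/620 nm ratio, cryptate antibody/streptavidin-XL665) after overnight incubation; IC50 from four-parameter logistic fit.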

[3] = biological target: T3, SIK3 kinase (aa59-365, Thermo Fisher) (Homo sapiens, UniProt Q9Y2K2); test: Biochemical activities determination for SIK3 protein (TR-FRET); conditions: 125 uM ATP, 0.5 μM STK1 substrate
T3 construct: SIK3 kinase (aa59-365, Thermo Fisher); purchased Thermo Fisher
T3 sequence (Q9Y2K2 59-365): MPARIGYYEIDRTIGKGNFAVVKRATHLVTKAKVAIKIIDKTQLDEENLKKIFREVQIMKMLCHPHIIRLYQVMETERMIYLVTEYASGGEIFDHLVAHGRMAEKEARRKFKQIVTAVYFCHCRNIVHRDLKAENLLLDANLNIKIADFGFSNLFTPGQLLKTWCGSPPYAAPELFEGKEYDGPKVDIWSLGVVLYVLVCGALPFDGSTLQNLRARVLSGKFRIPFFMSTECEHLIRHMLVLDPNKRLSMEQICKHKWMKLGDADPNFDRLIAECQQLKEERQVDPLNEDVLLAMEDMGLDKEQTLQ
In short: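 SIK3 (aa59-365) was preincubated with compound (0-10 μM) for 60 min at room temperature in Tris buffer pH 7.5. The reaction was then started with 125 uM ATP and 0.5 μM STK1 substrate and run 180 min at room temperature. Phospho-substrate was detected by HTRF (665/620 nm ratio), and IC50 came from a four-parameter logistic fit.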

COc1cc(-c2coc3cc(-c4cnn(C5CCN(C)C5)c4)ccc23)cc(OC(F)F)c1C(=O)N[C@@H]1C[C@@H]1F (stereo partly drawn) [Compound 38, 2-(difluoromethoxy)-N-((1R,2S)-2-fluorocyclopropyl)-6-methoxy-4-(6-(1-(1-methylpyrrolidin-3-yl)-1H-pyrazol-4-yl)benzofuran-3-yl)benzamide]
IC50 [1]: 24 nM
IC50 [2]: 1.7 nM
IC50 [3]: 3.9 nM

COc1cc(-c2coc3cc(OCCN4CCOCC4)ccc23)cc2c1C(=O)N(CC(F)(F)F)CC2 [Compound 58, 8-methoxy-6-(6-(2-morpholinoethoxy)benzofuran-3-yl)-2-(2,2,2-trifluoroethyl)-3,4-dihydroisoquinolin-1 (2H)-one]
IC50 [1]: > 10000 nM
IC50 [2]: 167 nM
IC50 [3]: 391 nM

CN1CC(n2cc(-c3ccc4c(-c5cc6c(c(OC(F)F)c5)C(=O)N(CC(F)(F)F)CC6)coc4c3)cn2)C1 [Compound 44, 8-(difluoromethoxy)-6-(6-(1-(1-methylazetidin-3-yl)-1H-pyrazol-4-yl)benzofuran-3-yl)-2-(2,2,2-trifluoroethyl)-3,4-dihydroisoquinolin-1 (2H)-one]
IC50 [1]: 538 nM
IC50 [2]: 5.2 nM
IC50 [3]: 45 nM

COc1cc(-c2coc3cc(-c4cn(C)nc4C#N)ccc23)cc2c1C(=O)N(CC(F)(F)F)CC2 [Compound 18, 4-(3-(8-methoxy-1-oxo-2-(2,2,2-trifluoroethyl)-1,2,3,4-tetrahydroisoquinolin-6-yl)benzofuran-6-yl)-1-methyl-1H-pyrazole-3-carbonitrile]
IC50 [1]: > 10000 nM
IC50 [2]: 214 nM
IC50 [3]: 237 nM

COc1cc(-c2coc3cc(-c4cnn(C5CCN(C)CC5)c4)ccc23)cc2c1C(=O)N(CC(F)(F)F)CC2 [Compound 52, 8-methoxy-6-(6-(1-(1-methylpiperidin-4-yl)-1H-pyrazol-4-yl)benzofuran-3-yl)-2-(2,2,2-trifluoroethyl)-3,4-dihydroisoquinolin-1 (2H)-one]
IC50 [1]: 212 nM
IC50 [2]: 4.9 nM
IC50 [3]: 23 nM

COc1cc(-c2coc3cc(OCCCN4CCN(C)CC4)ccc23)cc(OC(F)F)c1C(=O)N[C@@H]1C[C@@H]1F [Compound 85, 2-(difluoromethoxy)-N-((1R,2S)-2-fluorocyclopropyl)-6-methoxy-4-(6-(3-(4-methylpiperazin-1-yl)propoxy)benzofuran-3-yl)benzamide]
IC50 [1]: 236 nM
IC50 [2]: 8.1 nM
IC50 [3]: 32.8 nM

COc1cc(-c2coc3cc(-c4cnn(C)c4)ccc23)cc(OC)c1-c1nnc(C)o1 [Compound 34, 2-(2,6-dimethoxy-4-(6-(1-methyl-1H-pyrazol-4-yl)benzofuran-3-yl)phenyl)-5-methyl-1,3,4-oxadiazole]
IC50 [1]: 2680 nM
IC50 [2]: 239 nM
IC50 [3]: 420 nM

COc1cc(-c2coc3cc(OCCN4CC[C@H](C)C4)ccc23)cc(OC(F)F)c1C(=O)N[C@@H]1C[C@@H]1F [Compound 81, 2-(difluoromethoxy)-N-((1R,2S)-2-fluorocyclopropyl)-6-methoxy-4-(6-(2-((S)-3-methylpyrrolidin-1-yl)ethoxy)benzofuran-3-yl)benzamide]
IC50 [1]: 1890 nM
IC50 [2]: 11 nM
IC50 [3]: 32 nM

O=C1c2c(cc(-c3coc4cc(-c5cnn(C6CNC6)c5)ccc34)cc2OC(F)F)CCN1CC(F)(F)F [Compound 42, 6-(6-(1-(azetidin-3-yl)-1H-pyrazol-4-yl)benzofuran-3-yl)-8-(difluoromethoxy)-2-(2,2,2-trifluoroethyl)-3,4-dihydroisoquinolin-1 (2H)-one]
IC50 [1]: 1590 nM
IC50 [2]: 25 nM
IC50 [3]: 115 nM

N#CCCN1CC(n2cc(-c3ccc4c(-c5cc6c(c(OC(F)F)c5)C(=O)N(CC(F)(F)F)CC6)coc4c3)cn2)C1 [Compound 45, 3-(3-(4-(3-(8-(difluoromethoxy)-1-oxo-2-(2,2,2-trifluoroethyl)-1,2,3,4-tetrahydroisoquinolin-6-yl)benzofuran-6-yl)-1H-pyrazol-1-yl)azetidin-1-yl) propanenitrile]
IC50 [1]: 560 nM
IC50 [2]: 9.8 nM
IC50 [3]: 28 nM

CN1CC(Oc2cc(-c3coc4cc(OCCN5CCCC5)ccc34)cc(OC(F)F)c2C(=O)NC2CC2)C1 [Compound 106, N-cyclopropyl-2-(difluoromethoxy)-6-((1-methylazetidin-3-yl)oxy)-4-(6-(2-(pyrrolidin-1-yl)ethoxy)benzofuran-3-yl)benzamide]
IC50 [1]: > 10000 nM
IC50 [2]: 2960 nM
IC50 [3]: > 10000 nM

COc1cc(-c2coc3cc(OCCN4CC[C@H](C(C)C)C4)ccc23)cc(OC(F)F)c1C(=O)N[C@@H]1C[C@@H]1F [Compound 90, 2-(difluoromethoxy)-N-((1R,2S)-2-fluorocyclopropyl)-4-(6-(2-((R)-3-isopropylpyrrolidin-1-yl)ethoxy)benzofuran-3-yl)-6-methoxybenzamide]
IC50 [1]: 2350 nM
IC50 [2]: 13 nM
IC50 [3]: 33 nM

COc1cc(-c2coc3cc(OCCN4CCC[C@@H](C)C4)ccc23)cc(OC(F)F)c1C(=O)N[C@@H]1C[C@@H]1F [Compound 89, 2-(difluoromethoxy)-N-((1R,2S)-2-fluorocyclopropyl)-6-methoxy-4-(6-(2-((R)-3-methylpiperidin-1-yl)ethoxy)benzofuran-3-yl)benzamide]
IC50 [1]: 4210 nM
IC50 [2]: 24 nM
IC50 [3]: 74 nM

CN1CC[C@@H](COc2cc(-c3coc4cc(OCCN5CCCC5)ccc34)cc(OC(F)F)c2C(=O)NC2CC2)C1 [Compound 112, (R)—N-cyclopropyl-2-(difluoromethoxy)-6-((1-methylpyrrolidin-3-yl)methoxy)-4-(6-(2-(pyrrolidin-1-yl)ethoxy)benzofuran-3-yl)benzamide]
IC50 [1]: > 10000 nM
IC50 [2]: 1300 nM
IC50 [3]: 7620 nM

COc1cc(-c2coc3cc(OCCN4CCC4)ccc23)cc(OC(F)F)c1C(=O)N[C@@H]1C[C@@H]1F [Compound 75, 4-(6-(2-(azetidin-1-yl)ethoxy)benzofuran-3-yl)-2-(difluoromethoxy)-N-((1R,2S)-2-fluorocyclopropyl)-6-methoxybenzamide]
IC50 [1]: 1740 nM
IC50 [2]: 16 nM
IC50 [3]: 93 nM

COc1cc(-c2coc3cc(OCCN4CCCC4)ccc23)cc(OC(F)F)c1C(=O)NC1CCC1 [Compound 129, N-cyclobutyl-2-(difluoromethoxy)-6-methoxy-4-(6-(2-(pyrrolidin-1-yl)ethoxy)benzofuran-3-yl)benzamide]
IC50 [1]: > 10000 nM
IC50 [2]: 146 nM
IC50 [3]: 683 nM

COc1cc(-c2coc3cc(-c4cnn(C5CN(C)C5)c4)ccc23)cc(OC(F)F)c1C(=O)N[C@@H]1C[C@@H]1F [Compound 37, 2-(difluoromethoxy)-N-((1R,2S)-2-fluorocyclopropyl)-6-methoxy-4-(6-(1-(1-methylazetidin-3-yl)-1H-pyrazol-4-yl)benzofuran-3-yl)benzamide]
IC50 [1]: 25 nM
IC50 [2]: 1.4 nM
IC50 [3]: 4.2 nM

COc1cc(-c2coc3cc(OCCN4CCCC4)ccc23)cc(OC(F)F)c1C(=O)NCC#N [Compound 66, N-(cyanomethyl)-2-(difluoromethoxy)-6-methoxy-4-(6-(2-(pyrrolidin-1-yl)ethoxy)benzofuran-3-yl)benzamide]
IC50 [1]: 6690 nM
IC50 [2]: 58 nM
IC50 [3]: 132 nM

CCc1nnc(-c2c(OC)cc(-c3coc4cc(-c5cnn(C)c5)ccc34)cc2OC)o1 [Compound 36, 2-(2,6-dimethoxy-4-(6-(1-methyl-1H-pyrazol-4-yl)benzofuran-3-yl)phenyl)-5-ethyl-1,3,4-oxadiazole]
IC50 [1]: 2090 nM
IC50 [2]: 144 nM
IC50 [3]: 305 nM

COc1cc(-c2coc3cc(OCCN4CCCC4)ccc23)cc(OC(F)F)c1C(=O)NC1CC1 [Compound 62, N-cyclopropyl-2-(difluoromethoxy)-6-methoxy-4-(6-(2-(pyrrolidin-1-yl)ethoxy)benzofuran-3-yl)benzamide]
IC50 [1]: > 10000 nM
IC50 [2]: 76 nM
IC50 [3]: 122 nM

COc1cc(-c2coc3cc(-c4cnn(C)c4)ccc23)cc2c1C(=O)N(CC(F)(F)F)CCO2 [Compound 28, 6-methoxy-8-(6-(1-methyl-1H-pyrazol-4-yl)benzofuran-3-yl)-4-(2,2,2-trifluoroethyl)-3,4-dihydrobenzo[f][1,4]oxazepin-5 (2H)-one]
IC50 [1]: 3940 nM
IC50 [2]: 140 nM
IC50 [3]: 281 nM

COc1cc(-c2coc3cc(-c4cnn(C5CCN(C)C5)c4)ccc23)cc2c1C(=O)N(CC(F)(F)F)CC2 (stereo not drawn) [Compound 51, 8-methoxy-6-(6-(1-(1-methylpyrrolidin-3-yl)-1H-pyrazol-4-yl)benzofuran-3-yl)-2-(2,2,2-trifluoroethyl)-3,4-dihydroisoquinolin-1 (2H)-one]
IC50 [1]: 317 nM
IC50 [2]: 3.7 nM
IC50 [3]: 26 nM

COc1cc(-c2coc3cc(-c4cn(C)nc4Cl)ccc23)cc2c1C(=O)N(CC(F)(F)F)CC2 [Compound 23, 6-(6-(3-chloro-1-methyl-1H-pyrazol-4-yl)benzofuran-3-yl)-8-methoxy-2-(2,2,2-trifluoroethyl)-3,4-dihydroisoquinolin-1 (2H)-one]
IC50 [1]: > 10000 nM
IC50 [2]: 223 nM
IC50 [3]: 387 nM
